This experiment concerns the target T1, MET M1250T (Homo sapiens, UniProt P08581, M1250T).
T1 construct: purchased Thermo Fisher Scientific (Life Technologies) SelectScreen
Nature of the experiment: SelectScreen Z'LYTE. The format is biochemical. The method in brief:
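NU5455 was profiled across the SelectScreen Broad panel of kinase activity and binding assays. Z'LYTE reactions such as CSF1R ran at apparent Km ATP, while the Adapta CAMK1 assay used ATP listed as 10. Values are given as percent.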

T1 sequence (P08581 25-1390 M1250T): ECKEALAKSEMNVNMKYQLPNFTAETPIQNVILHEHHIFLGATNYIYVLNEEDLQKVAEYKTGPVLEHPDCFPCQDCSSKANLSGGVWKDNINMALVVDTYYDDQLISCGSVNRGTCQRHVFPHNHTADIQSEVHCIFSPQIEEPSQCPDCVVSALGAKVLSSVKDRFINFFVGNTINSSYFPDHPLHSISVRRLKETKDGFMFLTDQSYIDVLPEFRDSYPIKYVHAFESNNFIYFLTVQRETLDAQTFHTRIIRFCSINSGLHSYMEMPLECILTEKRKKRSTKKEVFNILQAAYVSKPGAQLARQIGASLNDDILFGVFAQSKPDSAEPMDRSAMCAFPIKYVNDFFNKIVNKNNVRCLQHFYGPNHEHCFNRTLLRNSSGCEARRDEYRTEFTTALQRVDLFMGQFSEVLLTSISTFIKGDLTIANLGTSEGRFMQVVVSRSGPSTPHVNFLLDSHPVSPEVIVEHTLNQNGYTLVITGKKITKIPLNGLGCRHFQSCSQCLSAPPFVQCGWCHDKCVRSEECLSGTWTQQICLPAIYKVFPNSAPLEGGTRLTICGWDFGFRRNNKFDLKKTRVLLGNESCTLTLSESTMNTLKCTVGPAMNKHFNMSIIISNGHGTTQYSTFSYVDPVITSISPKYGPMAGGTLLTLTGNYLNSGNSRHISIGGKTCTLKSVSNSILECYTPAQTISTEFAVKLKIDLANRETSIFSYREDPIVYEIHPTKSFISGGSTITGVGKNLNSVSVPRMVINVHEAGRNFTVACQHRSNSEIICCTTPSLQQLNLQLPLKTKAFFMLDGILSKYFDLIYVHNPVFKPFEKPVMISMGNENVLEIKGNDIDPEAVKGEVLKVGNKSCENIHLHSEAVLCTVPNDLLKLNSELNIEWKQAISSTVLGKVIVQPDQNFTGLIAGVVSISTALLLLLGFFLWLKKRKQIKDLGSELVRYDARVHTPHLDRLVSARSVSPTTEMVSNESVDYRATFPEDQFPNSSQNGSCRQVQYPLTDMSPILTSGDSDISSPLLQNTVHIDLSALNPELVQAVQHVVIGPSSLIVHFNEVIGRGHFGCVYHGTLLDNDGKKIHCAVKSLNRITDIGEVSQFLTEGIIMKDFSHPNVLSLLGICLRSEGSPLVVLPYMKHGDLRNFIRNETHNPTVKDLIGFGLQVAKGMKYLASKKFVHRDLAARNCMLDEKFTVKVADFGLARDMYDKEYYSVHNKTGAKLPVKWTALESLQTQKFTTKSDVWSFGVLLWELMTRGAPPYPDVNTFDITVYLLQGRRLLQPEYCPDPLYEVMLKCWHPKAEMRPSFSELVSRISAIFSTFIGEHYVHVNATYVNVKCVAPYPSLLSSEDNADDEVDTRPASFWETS

As to `CN(C(=O)CN1CCOCC1)c1ccc2sc3c(-c4cccc5c(=O)cc(N6CC7CCC(C6)O7)oc45)cccc3c2c1` [NU5455], the inhibition (in general, the relative decrease from the control value, in per cent) at 1 µM is -14.5%.

The values above are taken from PMC6934184, “Selective DNA-PKcs inhibition extends the therapeutic index of localized radiotherapy and chemotherapy” (The Journal of Clinical Investigation, 2019).
